Measured values reported in the METLIN SMRT retention time set (Domingo-Almenara et al. 2019).

Assay: gradient 5% acetonitrile 3 min, to 50% in 2 min, to 85% in 15 min, held 3 min, 100 µL/min
Settings: column: Zorbax Extend-C18 2.1 x 50 mm; eluents: water / acetonitrile, 0.1% formic acid
Outline: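 A Zorbax Extend-C18 column (2.1 × 50 mm, 1.8 μm) run at 100 μL/min with water and acetonitrile, both containing 0.1% formic acid, separated mixtures of ~100 pure standards. The HPLC was coupled to a quadrupole time-of-flight mass spectrometer operated in positive and negative ionization mode, with dead and dwell volumes of 40 μL and 900 μL. Each retention time was taken from a computationally picked adduct peak that was then manually inspected.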

`CCn1cc(S(=O)(=O)N2CC(Cn3c(C)cnc3-c3cccnc3)C2)cn1` gave an RP-LC retention time of 576 s.
For `CCn1c(=O)sc2cc(S(=O)(=O)N3CCC(C(=O)NCc4ccc(OC)cc4)CC3)ccc21`, the RP-LC retention time was 978 s.
Compound `Cn1c(=O)sc2cc(S(=O)(=O)N3CCC(C(=O)NC4CCCC4)CC3)ccc21` has an RP-LC retention time of 777 s.
With `Cc1ccc(NC(=O)CN2CCc3[nH]c4c(C)ccc(F)c4c(=O)c3C2)cc1F` the RP-LC retention time was 638 s.
In the case of `Cc1ccc(CNC(=O)C(C)n2c3ccccc3c3cnn(C)c(=O)c32)o1` (configuration not stated), the RP-LC retention time is reported as 882 s.
Compound `COc1cccc(-n2c(=O)c(C(=O)Nc3ccc(Cl)cc3)c(O)c3cccnc32)c1` has an RP-LC retention time of 1340 s.
`O=C(Cn1cnc2ccccc21)N1CCC(COCc2ccccc2)CC1` gave an RP-LC retention time of 608 s.
`COc1ccccc1OCCN1C(=O)C(NC(C)=O)c2ccccc21` (configuration not stated) showed an RP-LC retention time of 666 s.
Work on `COCCn1cnc2c(-c3ccccc3)cn(CC(=O)NCc3ccc4c(c3)OCO4)c2c1=O` yielded an RP-LC retention time of 828 s.
Work on `Cc1ccnc(NC(c2cccs2)c2ccc3cccnc3c2O)c1` (configuration not stated) yielded an RP-LC retention time of 676 s.
Compound `CN(C)C(=O)[C@@]12CCCC[C@H]1N(CCc1ccccc1)C(=O)CC2` has an RP-LC retention time of 725 s.
`Cc1oc(C2CCN(C(=O)Nc3cc(F)cc(F)c3)CC2)nc1C(=O)N1CCCC1` showed an RP-LC retention time of 917 s.
Work on `COc1ccc(-c2[nH]ncc2CN2C[C@@H]3CCN(S(C)(=O)=O)C[C@]3(CF)C2)cc1` yielded an RP-LC retention time of 590 s.
`CCN(CC)CCNC(=O)c1cc2n(n1)CC(C)(C(=O)NCc1ccc(F)cc1)N(C)C2=O` (configuration not stated) gave an RP-LC retention time of 589 s.
For `CCc1ccccc1NC(=O)Nc1ccc2nncn2c1`, the RP-LC retention time was 662 s.
With `CCCCNC(=O)c1nc(Nc2ccc(C)cc2)c2ccccc2n1` the RP-LC retention time was 831 s.
`CC(=O)N1CCN(C(=O)c2cccn2CC(=O)N2CCc3ccccc32)CC1` gave an RP-LC retention time of 627 s.
Compound `CCn1c(C(=O)NCc2ccccc2Cl)cc2sc(Cl)cc21` has an RP-LC retention time of 1190 s.
For `O=C(NCc1csc(C2CCN(C(=O)c3cc(F)ccc3F)CC2)n1)C1CC1`, the RP-LC retention time was 668 s.
For `CC(C)CNC(=O)CN1CCN(Cc2ccc(F)cc2)C1=O`, the RP-LC retention time was 742 s.
Work on `CCC(CC)C(=O)N1CCC2(CC1)C(=O)N(C)c1ccccc12` yielded an RP-LC retention time of 850 s.
For `COC(=O)c1ccc(CSc2nnc(NC(=O)c3snnc3C)s2)o1`, the RP-LC retention time was 743 s.
`CCOc1ccc(Nc2nc(C(=O)Nc3ccc(S(N)(=O)=O)cc3)cs2)cc1` showed an RP-LC retention time of 761 s.
Work on `Brc1ccc(-c2nc(-c3ccn4cnnc4c3)no2)cc1` yielded an RP-LC retention time of 929 s.
`Cc1ccc(S(=O)(=O)c2cnc3ccc(F)cc3c2N2CCOCC2)cc1C` gave an RP-LC retention time of 892 s.
`COc1cccc(CNC(=O)Cn2c(=O)cc(-c3nc(C4CC4)no3)c3ccccc32)c1` showed an RP-LC retention time of 902 s.
In the case of `COc1ccc(Cc2nc3nccc(-c4cccnc4)n3n2)cc1`, the RP-LC retention time is reported as 692 s.
`Cc1cc(C)cc(S(=O)(=O)N2CCC(c3nc(C(=O)N(C)C)c(C)o3)CC2)c1` showed an RP-LC retention time of 882 s.
`COCCN(C)C(=O)c1cc2c(s1)N(C)CCCC2` gave an RP-LC retention time of 770 s.
With `Cc1cccc(-c2noc(C3CCCN3C(=O)Nc3cccc(F)c3)n2)c1` (configuration not stated) the RP-LC retention time was 1050 s.
In the case of `Cc1c(Cl)cccc1S(=O)(=O)N1CCc2nc(-c3ccc(F)cc3)ncc2C1`, the RP-LC retention time is reported as 1250 s.
For `Cn1cc(S(=O)(=O)N2CCC(C(=O)NCc3ccccc3)CC2)cc1C(=O)N1CCCC1`, the RP-LC retention time was 1040 s.
`CS(=O)(=O)N1CC(c2nc(-c3cccnc3)no2)C2(CCOCC2)C1` (configuration not stated) showed an RP-LC retention time of 630 s.
In the case of `Cn1c(CN2CCN(C(=O)c3ccco3)CC2)nc2cc(NC(=O)c3ccco3)ccc21`, the RP-LC retention time is reported as 607 s.
`Cc1ccccc1C(=O)N1CCc2c(c(-c3nc(C4CC4)no3)nn2C)C1` gave an RP-LC retention time of 801 s.
With `CCc1ccc(NC(=O)N2CCCC2c2cc(C)on2)cc1` (configuration not stated) the RP-LC retention time was 845 s.
`COc1cccc(-c2csc(-c3nnn(-c4ccc(Cl)cc4)c3N)n2)c1` showed an RP-LC retention time of 1170 s.
